Laboratory results from patent US11059844B2, “Immune stimulating macrolides” (ISR IMMUNE SYSTEM REGULATION HOLDING AB (PUBL), priority 2017, dated 2021).

System: Macrophages from healthy donors
Assay: Cytokine/chemokine secretion from macrophages (cytometric bead assay)
Format: cell-based, Human
Description: FIG. 10: Interferon-gamma secretion (as measured by cytometric bead assay) from macrophages stimulated with indicated compound for 48 h.
FIG. 11: Chemokine RANTES secretion (as measured by cytometric bead assay) from PBMC or macrophages stimulated with indicated compound for 48 h.
FIG. 12: IL12p70 secretion (as measured by cytometric bead assay) from PBMC or macrophages stimulated with indicated compound for 48 h.
FIG. 13: IL1b secretion (as measured by cytometric bead assay) from PBMC, macrophages or CD4 T cells stimulated with indicated compound for 48 h.
Study 9: Macrophages from healthy donors where exposed to compounds 1 or 2 for 48 hours. […] Compound 1 is therefore able to induce IFN-gamma secretion in macrophages from healthy donors.
Study 10: PBMCs and macrophages where exposed to compounds 1 or 2 for 2 days (FIG. 11).
Study 11: PBMCs and macrophages where exposed to compounds 1 and 2 for 2 days.
Study 12: PBMCs, macrophages and CD4+ T cells where exposed to compounds 1 and 2 for 2 days.

With `CC[C@H]1OC(=O)[C@H](C)[C@@H](O[C@H]2C[C@@H](N(C)C)[C@H](O)[C@@H](C)O2)[C@H](C)[C@@H](O)[C@](C)(O)C[C@@H](C)CN(C)[C@H](C)[C@@H](O)[C@]1(C)O` [Compound 1] the “IL-1beta secretion, macrophages” value (2 days) was “increased”, the “IL-12p70 secretion, macrophages” value (2 days) was “secreted IL-12p70” and the “RANTES expression, macrophages” value (2 days) was “high expression”. For the same molecule, the “IFN-gamma secretion, macrophages” value (48 hours) was “secreted IFN-gamma”.
